Measured values as given in PMC8623398, “Investigation of the Mechanisms of Cytotoxic Activity of 1,3-Disubstituted Thiourea Derivatives” (Pharmaceuticals, 2021).

Experiments:
[1] = Annexin V-FITC/PI flow cytometry, HaCaT; type: cell-based, human; set-up: viability at 72 h: concentration or dose not given beside the values; details: human, HaCaT cells (normal keratinocytes), representative dot plot, Figure 4E, read-out: LL quadrant, viable cells
Description: (§1) To estimate the mechanism of anticancer activity of the selected compounds 1–3, 8, and 9, their effect on both early and late apoptosis was evaluated by flow cytometry analysis. […] Additionally, visible late apoptosis-inducing properties in these cell lines were denoted for the compound 9 (47% ± 3.0%), which was twice as strong towards the colon tumor cells mentioned above. The apoptotic properties of analogs 3 and 8 in K-562 cells varied from 30% ± 1.6% to 33% ± 2.3%. […] Whereas the apoptosis-generating influence of derivatives 2 and 3 on normal keratinocytes was higher (29% and 23%), their selectivity measured by MTT methods is favorable. The obtained results are in agreement with the IC50 values assigned to pathological cancer cell lines. The cells were cultured and harvested under the conditions described in Section 3.2.1. […] The effect of these compounds on the process of early and late apoptosis and necrosis was determined as described previously by dual staining with Annexin V:FITC and propidium iodide, according to the manufacturer’s protocol (Becton Dickinson). The cells that were Annexin V:FITC positive and PI negative were identified as early apoptotic, and Annexin V:FITC and PI positive as late apoptotic or necrotic.

PC3 cells [2] = assay: MTT assay, PC3; type: cell-based; details: Homo sapiens, PC-3, 72 h, 50% growth inhibition
Description: (§2) As a first step in assessing their cytotoxic properties, all thioureas of the series were assayed against four human carcinoma cell lines, such as SW480 (primary colon cancer), SW620 (metastatic colon cancer), PC3 (metastatic prostate cancer), and K-562 (chronic myelogenous leukemia), as well as against the normal cell line HaCaT (immortalized human keratinocytes). Table 1 lists the compound concentrations that produced 50% of growth inhibition (IC50, μM), generated by the MTT method, in comparison with two commonly used chemotherapeutic agents, doxorubicin and cisplatin.
(§3) The human primary (SW480), metastatic (SW620) colon cancer, metastatic prostate cancer (PC3), chronic myelogenous leukemia (K-562), and human immortal keratinocyte (HaCaT) cell lines were purchased from the American Type Culture Collection (ATCC, Rockville, MD, USA). The cells were cultured in medium according to protocols (MEM for SW480 and SW620, RPMI 1640 for PC3 and K-562, and DMEM for HaCaT cells), supplemented with 10% FBS, penicillin (100 U/mL) and streptomycin (100 μg/mL), and cultured in a 37 °C/5% CO2 humidified incubator. The cells were cultured until appropriate confluence was achieved (80–90%). Next, they were harvested by treatment with 0.25% trypsin (Gibco Life Technologies, Waltham, MA, USA) excluding the non-adherent K-562 cell line and used for studies.
(§4) Cells without the studied compounds in medium were used as a control.
(§5) The cell viability was assessed by determination of MTT salt [3-(4,5-dimethylthiazol-2-yl)-2,5-diphenyltetrazoliumbromide] conversion by mitochondrial dehydrogenase. The MTT assay was performed as previously described. Alternatively, non-adherent leukemic cells were centrifuged in a microplate centrifuge (400× g, 5 min) during the collection stages. Experiments were repeated three times. Cell viability was presented as a percent of MTT reduction in the treated cells versus the control cells. The number of viable cells cultured without the studied compounds was assumed as 100%. A decreased relative MTT level indicated decreased cell viability. Thiourea compounds with the highest cytotoxic potential assessed by MTT determination (with the lowest IC50) were chosen for subsequent assessments of cytotoxicity mechanisms.

HaCaT cells = assay: MTT assay, HaCaT normal cells; type: cell-based, human; details: Homo sapiens, HaCaT, 72 h
Description: as §2, §3, §4, §5

SW620 cells = assay: Trypan blue assay, SW620; type: cell-based, human; details: SW620, 72 h; for reduction in live cell number: vs control; for Cell Number × 10^5 / Viability (%): compound at IC50 concentration
Description: (§6) In order to estimate the tumor and normal cell population density and their viability after treatment with compounds 1–3, 8, and 9, the trypan blue dye exclusion assay was performed. The live cell number of all cancerous cells incubated for 72 h with the studied thioureas was considerably lower in comparison with the controls (Table 2; Figure S1A). The highest reduction in cell amount was denoted for both colon SW480 and SW620 cells treated with the dichlorophenyl derivative 2, and it accounted for 93%. […] Similarly, a noticeable decline in both colon cancer cell populations was observed after treatment with the ortho-substituted compound 8. The number of live cells equaled 12% and 18%, respectively, as compared to controls. This thiourea also led to a reduction of PC3 cells of 38%, and leukemia K-562 cell lines of 27%. The number of SW620 and PC3 cells decreased by 72% and 63% in the presence of para-substituted compound 9. However, the reducing influence of this thiourea on the number of other cancerous cells was at the level of 21–32%. […] A significant effect on the other studied pathological cells was also noticed and accounted for 32–46%. Furthermore, the derivative 3 reduced the amount of live cancer cells by 32–59%, of which its decreasing impact on colon cancer cells was the greatest.
(§7) The live cell count was assessed by the trypan blue exclusion dye assay using an automated cell counter (CountessTM Invitrogen, Waltham, MA, USA). Untreated cells were used as the control.

[3] = test system: SW480, SW620, PC3, K-562 cells; assay: MTT assay, summary over cancer cell lines; type: cell-based; details: Homo sapiens, 72 h, depending on the tumor line, read-out: IC50 (range or bound over cancer cell lines)
Description: as §2, §4, §5

SW480 cells [4] = assay: MTT assay, SW480; type: cell-based, human; details: 50% growth inhibition
Description: as §2, §3, §4, §5

SW480 cells [5] = assay: Annexin V-FITC/PI flow cytometry, SW480; type: cell-based, human; details: SW480, 72 h, IC50 concentration
Description: as §1

PC3 cells [6] = assay: Trypan blue assay, PC3; type: cell-based, human; details: PC3, 72 h; for reduction in live cell number: IC50 concentration, vs control; for Cell Number × 10^5 / Viability (%): compound at IC50 concentration
Description: as §6, §7

| SMILES | IC50 (PC3 cells [2]) [µM] | IC50 [3] [µM] | IC50 (SW480 cells [4]; Homo sapiens, SW480, 72 h) [µM] | IC50 (SW480 cells [4]; 72 h) [µM] | viability at 72 h [1] [%] | IC50 (HaCaT cells) [µM] | reduction in live cell number (SW620 cells; IC50 concentration) [%] | Cell Number × 10^5 (SW620 cells) | Viability (%) (SW620 cells) | cells in late apoptosis (SW480 cells [5]) | reduction in live cell number (PC3 cells [6]) [%] | Cell Number × 10^5 (PC3 cells [6]) | Viability (%) (PC3 cells [6]) | decrease of cell viability (SW620 cells; IC50 concentration) [%] | number of live cells as compared to controls (SW620 cells; IC50 concentration) [%] |
| --- | --- | --- | --- | --- | --- | --- | --- | --- | --- | --- | --- | --- | --- | --- | --- |
| FC(F)(F)c1cccc(NC(=S)Nc2ccc(Cl)cc2)c1 [Compound 9, 1-(4-chlorophenyl)-3-[3-(trifluoromethyl)phenyl]thiourea] | 22.6 ± 1.25 | ≤ 10 | 38.1 ± 4.38 |  | 79.5 | 71.5 ± 3.08 | 72 | 1.6 ± 0.11 × 10^5 | 84 ± 3.08 | 24% ± 0.4% | 63 | 1.2 ± 0.15 × 10^5 | 73 ± 1.99 |  |  |
| FC(F)(F)c1cccc(NC(=S)Nc2ccc(Cl)c(Cl)c2)c1 [Compound 2, 1-(3,4-dichlorophenyl)-3-[3-(trifluoromethyl)phenyl]thiourea] | 31.7 ± 2.07 |  | 9 ± 1.42 |  | 57.6 | 24.7 ± 0.05 | 93 | 0.4 ± 0.22 × 10^5 | 42 ± 1.30 | 95% ± 1.5% | 69 | 2.4 ± 0.16 × 10^5 | 93 ± 1.40 |  |  |
| FC(F)(F)c1ccc(NC(=S)Nc2cccc(C(F)(F)F)c2)cc1 [Compound 8, 1-[3-(trifluoromethyl)phenyl]-3-[4-(trifluoromethyl)phenyl]thiourea] | 6.9 ± 1.64 |  | 8.9 ± 1.14 |  | 70.1 | 41.3 ± 0.17 |  | 1.0 ± 0.20 × 10^5 | 55 ± 1.11 | 97% ± 1.2% | 38 | 2.1 ± 0.12 × 10^5 | 82 ± 1.10 | 45 | 18 |

Second part, led by results:

| IC50 (PC3 cells [2]) [µM] | IC50 [3] [µM] | IC50 (SW480 cells [4]; Homo sapiens, SW480, 72 h) [µM] | IC50 (SW480 cells [4]; 72 h) [µM] | SMILES | viability at 72 h [1] [%] | IC50 (HaCaT cells) [µM] | reduction in live cell number (SW620 cells; IC50 concentration) [%] | Cell Number × 10^5 (SW620 cells) | Viability (%) (SW620 cells) | cells in late apoptosis (SW480 cells [5]) | reduction in live cell number (PC3 cells [6]) [%] | Cell Number × 10^5 (PC3 cells [6]) | Viability (%) (PC3 cells [6]) | decrease of cell viability (SW620 cells; IC50 concentration) [%] | number of live cells as compared to controls (SW620 cells; IC50 concentration) [%] |
| --- | --- | --- | --- | --- | --- | --- | --- | --- | --- | --- | --- | --- | --- | --- | --- |
| 53.6 ± 2.94 | ≤ 10 | 12.7 to 15.6 | 12.7 ± 1.53 | Fc1ccc(NC(=S)Nc2cccc(C(F)(F)F)c2)cc1Cl [Compound 1, 1-(3-chloro-4-fluorophenyl)-3-[3-(trifluoromethyl)phenyl]thiourea] | 78.2 | 43.6 ± 4.22 |  | 1.3 ± 0.25 × 10^5 | 79 ± 1.30 | 60% ± 1.8% |  | 2.3 ± 0.15 × 10^5 | 93 ± 1.50 |  |  |
| 13.7 ± 7.04 | ≤ 10 | 30.1 ± 3.11 |  | FC(F)(F)c1cccc(NC(S)=Nc2ccc(Cl)cc2Cl)c1 [Compound 3, 1-(2,4-dichlorophenyl)-3-[3-(trifluoromethyl)phenyl]thiourea] | 65.7 | 52.1 ± 0.95 |  | 2.4 ± 0.20 × 10^5 | 93 ± 2.33 |  |  | 1.8 ± 0.18 × 10^5 | 58 ± 1.20 |  |  |
